Literature values in patent US11904118B2, “Drug delivery medical device” (Micell Medtech Inc., priority 2010, dated 2024).

Molecular target: FKBP12 (Homo sapiens, UniProt P62942)
Sequence (P62942 whole entry, species assumed): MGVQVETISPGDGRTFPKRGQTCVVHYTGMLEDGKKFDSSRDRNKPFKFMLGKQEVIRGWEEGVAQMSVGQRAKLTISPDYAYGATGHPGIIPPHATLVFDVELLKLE

In the case of `C=CC[C@@H]1/C=C(\C)C[C@H](C)C[C@H](OC)[C@H]2O[C@@](O)(C(=O)C(=O)N3CCCC[C@H]3C(=O)O[C@H](/C(C)=C/[C@@H]3CC[C@@H](O)[C@H](OC)C3)[C@H](C)[C@@H](O)CC1=O)[C@H](C)C[C@@H]2OC` [Tacrolimus], the “FKBP12 binding” value is given as 0.2 to 0.4 nM.
For `CO[C@H]1C[C@@H]2CC[C@@H](C)[C@@](O)(O2)C(=O)C(=O)N2CCCC[C@H]2C(=O)O[C@H]([C@H](C)C[C@@H]2CC[C@@H](OCCO)[C@H](OC)C2)CC(=O)[C@H](C)/C=C(\C)[C@@H](O)[C@@H](OC)C(=O)[C@H](C)C[C@H](C)/C=C/C=C/C=C/1C` [Everolimus, 40-O-(2-Hydroxyethyl)rapamycin], the “FKBP12 binding” value is listed as 1.8 to 2.6 nM.
In the case of `CO[C@H]1C[C@@H]2CC[C@@H](C)[C@@](O)(O2)C(=O)C(=O)N2CCCC[C@H]2C(=O)O[C@H]([C@H](C)C[C@@H]2CC[C@@H](OC(=O)C(C)(CO)CO)[C@H](OC)C2)CC(=O)[C@H](C)/C=C(\C)[C@@H](O)[C@@H](OC)C(=O)[C@H](C)C[C@H](C)/C=C/C=C/C=C/1C` [Temsirolimus, 42-[3-hydroxy-2-(hydroxymethyl)-2-methylpropanoate]rapamycin], the “FKBP12 binding (nM)” value is given as “about the same as Sirolimus”.
In the case of `CC[C@@H]1/C=C(\C)C[C@H](C)C[C@H](OC)[C@H]2O[C@@](O)(C(=O)C(=O)N3CCCC[C@H]3C(=O)O[C@H](/C(C)=C/[C@@H]3CC[C@H](Cl)[C@H](OC)C3)[C@H](C)[C@@H](O)CC1=O)[C@H](C)C[C@@H]2OC` [Pimecrolimus], the “FKBP12 binding (nM)” value is listed as “about 1.2 nM”.
For `CO[C@H]1C[C@@H]2CC[C@@H](C)[C@@](O)(O2)C(=O)C(=O)N2CCCC[C@H]2C(=O)O[C@H]([C@H](C)C[C@@H]2CC[C@H](n3cnnn3)[C@H](OC)C2)CC(=O)[C@H](C)/C=C(\C)[C@@H](O)[C@@H](OC)C(=O)[C@H](C)C[C@H](C)/C=C/C=C/C=C/1C` [Zotarolimus], the “FKBP12 binding” value is listed as 2.0 to 3.2 nM.
